Measured values published in US8912220B2 (priority 2009, dated 2014).

Molecular target: human 5-HT2C(VSV) (Homo sapiens, UniProt P28335, I156V/I160V/N158S)
Test: cell-based

Sequence of human 5-HT2C(VSV) (P28335 33-458 I156V/N158S/I160V limits assumed): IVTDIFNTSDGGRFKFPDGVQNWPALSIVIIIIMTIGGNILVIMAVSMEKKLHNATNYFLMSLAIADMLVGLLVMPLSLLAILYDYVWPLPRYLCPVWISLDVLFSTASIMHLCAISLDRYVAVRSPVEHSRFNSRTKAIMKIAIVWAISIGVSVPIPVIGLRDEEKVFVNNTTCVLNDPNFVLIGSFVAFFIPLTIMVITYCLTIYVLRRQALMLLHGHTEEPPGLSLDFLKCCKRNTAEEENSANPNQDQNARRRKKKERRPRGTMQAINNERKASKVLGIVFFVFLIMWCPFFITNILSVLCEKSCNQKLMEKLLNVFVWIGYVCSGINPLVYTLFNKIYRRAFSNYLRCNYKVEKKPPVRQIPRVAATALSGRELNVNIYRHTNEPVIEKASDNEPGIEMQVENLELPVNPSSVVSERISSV

Structure (SMILES) | EC50 [nM]
CNCCc1cn(C)c2ccc(F)c(OCc3ccc(S(C)(=O)=O)cc3)c12 [33-38, 2-(5-fluoro-1-methyl-4-(4-(methylsulfonyl)benzyloxy)-1H-indol-3-yl)-N-methylethanamine] | 1 to 500
CN(C)CCc1cn(Cc2ccco2)c2c(F)ccc(OCc3ccccc3)c12 [24-1, 2-(4-(benzyloxy)-7-fluoro-1-(furan-2-ylmethyl)-1H-indol-3-yl)-N,N-dimethylethanamine] | 1 to 500
COc1ccc(-c2ccccc2)c2c1c(CCN(C)C)cn2C [6-6, 2-(4-methoxy-1-methyl-7-phenyl-1H-indol-3-yl)-N,N-dimethylethanamine] | 1 to 500
COc1ccc(S(=O)(=O)c2ccccc2)c2c1c(CCN(C)C)cn2C [25-1, 2-(4-methoxy-1-methyl-7-(phenylsulfonyl)-1H-indol-3-yl)-N,N-dimethylethanamine] | 1 to 500
NCCc1cn(CC2CCCCO2)c2ccc(F)c(O)c12 (centres unmarked) [19-3, 3-(2-Aminoethyl)-5-fluoro-1-((tetrahydro-2H-pyran-2-yl)methyl)-1H-indol-4-ol] | 1 to 500
CCn1cc(CCN(C)Cc2ccccc2)c2c(OCc3ccccc3)cc(F)cc21 [31-6, N-benzyl-2-(4-(benzyloxy)-1-ethyl-6-fluoro-1H-indol-3-yl)-N-methylethanamine] | 1 to 500
CCn1cc(CCNC(c2ccccc2)c2ccccc2)c2c(O)cc(F)cc21 [31-10, 3-(2-(benzhydrylamino)ethyl)-1-ethyl-6-fluoro-1H-indol-4-ol] | 1 to 500
CN(C)CCc1cn(Cc2cccs2)c2c(F)ccc(OCc3ccccc3)c12 [7-4, 2-(4-(benzyloxy)-7-fluoro-1-(thiophen-2-ylmethyl)-1H-indol-3-yl)-N,N-dimethylethanamine] | 1 to 500
CCN(CC)C(=O)Cn1cc(CCN)c2c(O)c(F)ccc21 [19-6, 2-(3-(2-aminoethyl)-5-fluoro-4-hydroxy-1H-indol-1-yl)-N,N-diethylacetamide] | < 10000
CCn1cc(CCNCCOC)c2c(O)cc(F)cc21 [11-11, 1-ethyl-6-fluoro-3-(2-(2-methoxyethylamino)ethyl)-1H-inol-4-ol] | 1 to 500
CCCn1cc(CCN)c2c(OCc3ccc(Cl)cc3)c(F)ccc21 [18-3, 2-(4-(4-chlorobenzyloxy)-5-fluoro-1-propyl-1H-indol-3-yl)ethanamine] | < 10000
CCn1cc(CCN(C)C)c2c(OCc3ccc(OC(F)(F)F)cc3)cc(F)cc21 [1-11b, 2-(1-ethyl-6-fluoro-4-(4-(trifluoromethoxy)benzyloxy)-1H-indol-3-yl)-N,N-dimethylethanamine] | 500 to 10000
CNCCc1cn(C)c2cc(F)cc(OCc3ccc(Cl)cc3)c12 [33-45, 2-(4-(4-chlorobenzyloxy)-6-fluoro-1-methyl-1H-indol-3-yl)-N-methylethanamine] | 1 to 500
CCOc1c(F)ccc2c1c(CCNCCc1ccc3c(c1)OCO3)cn2C [30-26, 2-(benzo[d][1,3]dioxol-5-yl)-N-(2-(4-ethoxy-5-fluoro-1-methyl-1H-indol-3-yl)ethyl)ethanamine] | 1 to 500
CCn1cc(CCN(C)C)c2c(OCc3ccccc3C(F)(F)F)cc(F)cc21 [1-13b, 2-(1-ethyl-6-fluoro-4-(2-(trifluoromethyl)benzyloxy)-1H-indol-3-yl)-N,N-dimethylethanamine] | 500 to 10000
CCn1cc(CCN2Cc3ccccc3C2)c2c(OCc3ccccc3)cc(F)cc21 [31-3, 4-(benzyloxy)-1-ethyl-6-fluoro-3-(2-(isoindolin-2-yl)ethyl)-1H-indole] | 500 to 10000
CCCn1cc(CCNC)c2c(OCc3cccc4ccccc34)c(F)ccc21 [33-39, 2-(5-fluoro-4-(naphthalen-1-ylmethoxy)-1-propyl-1H-indol-3-yl)-N-methylethanamine] | 1 to 500
CCOc1c(F)ccc2c1c(CCNCc1cccc(C)c1)cn2C [30-20, 2-(4-ethoxy-5-fluoro-1-methyl-1H-indol-3-yl)-N-(3-methylbenzyl)ethanamine] | 1 to 500

Structure (SMILES) | EC50 [nM]
NCCc1cn(CC(N)=O)c2ccc(F)c(O)c12 [19-7, 2-(3-(2-aminoethyl)-5-fluoro-4-hydroxy-1H-indol-1-yl)acetamide] | < 10000
CCn1cc(CCNCc2cccc(C(F)(F)F)c2)c2c(O)cc(F)cc21 [31-12, 1-ethyl-6-fluoro-3-(2-(3-(trifluoromethyl)benzylamino)ethyl)-1H-indol-4-ol] | 1 to 500
Cn1cc(CCNCc2ccccc2)c2c(O)c(F)ccc21 [33-47, 3-(2-(benzylamino)ethyl)-5-fluoro-1-methyl-1H-indol-4-ol] | 1 to 500
CCn1cc(CCN(C)C)c2c(OC)c(CCCN)cc(F)c21 [28-4, 3-(3-(2-(dimethylamino)ethyl)-1-ethyl-7-fluoro-4-methoxy-1H-indol-5-yl)propan-1-amine] | 1 to 500
CNCCc1cn(C)c2c(F)cc(CCC3CCCCC3)c(OC)c12 [23-5, 2-(5-(2-cyclohexylethyl)-7-fluoro-4-methoxy-1-methyl-1H-indol-3-yl)-N-methylethanamine] | 1 to 500
CCn1cc(CCNCCc2ccccc2)c2c(O)cc(F)cc21 [26-11, 1-ethyl-6-fluoro-3-(2-(phenethylamino)ethyl)-1H-indol-4-ol] | 1 to 500
CNCCc1cn(C)c2ccc(F)c(OCc3ccccc3C(F)(F)F)c12 [33-31, 2-(5-fluoro-1-methyl-4-(2-(trifluoromethyl)benzyloxy)-1H-indol-3-yl)-N-methylethanamine] | 1 to 500
CNCCc1cn(C)c2ccc(F)c(OCCc3ccccc3Cl)c12 [33-19, 2-(4-(2-chlorophenethoxy)-5-fluoro-1-methyl-1H-indol-3-yl)-N-methylethanamine] | 500 to 10000
NCCc1cn(CCOc2ccccc2)c2ccc(F)c(O)c12 [19-4, 3-(2-aminoethyl)-5-fluoro-1-(2-phenoxyethyl)-1H-indol-4-ol] | 1 to 500
CCn1cc(CCNCCc2ccccc2)c2c(OCc3ccccc3)cc(F)cc21 [26-9, 2-(4-(benzyloxy)-1-ethyl-6-fluoro-1H-indol-3-yl)-N-phenethylethanamine] | 500 to 10000
Cc1cccc(CNCCc2cn(C)c3ccc(F)c(O)c23)n1 [17-20, 5-fluoro-1-methyl-3-(2-(((6-methylpyridin-2-yl)methyl)amino)ethyl)-1H-indol-4-ol] | < 10000
CCCn1cc(CCNC)c2c(OCc3ccc(F)cc3)c(F)ccc21 [33-15, 2-(5-fluoro-4-(4-fluorobenzyloxy)-1-propyl-1H-indol-3-yl)-N-methylethanamine] | 1 to 500
CCn1cc(CCNCc2ccccc2)c2c(O)cc(F)cc21 [26-8, 3-(2-(benzylamino)ethyl)-1-ethyl-6-fluoro-1H-indol-4-ol] | 1 to 500
CNCCc1cn(C)c2ccc(F)c(OCc3ccc(Cl)cc3)c12 [33-20, 2-(4-(4-chlorobenzyloxy)-5-fluoro-1-methyl-1H-indol-3-yl)-N-methylethanamine] | 1 to 500
CNCCc1cn(C)c2ccc(F)c(OCc3ccc(Cl)cc3Cl)c12 [33-48, 2-(4-(2,4-dichlorobenzyloxy)-5-fluoro-1-methyl-1H-indol-3-yl)-N-methylethanamine] | < 10000
CCn1cc(CCN(C)C)c2c(OC)cc(-c3ccccc3)cc21 [36-6, 2-(1-ethyl-4-methoxy-6-phenyl-1H-indol-3-yl)-N,N-dimethylethanamine] | 500 to 10000
CCOc1c(F)ccc2c1c(CCN1CCOCC1)cn2C [30-23, 4-(2-(4-ethoxy-5-fluoro-1-methyl-1H-indol-3-yl)ethyl)morpholine] | 500 to 10000
